{"source": "ChEMBL document CHEMBL1201862", "about": "“PubChem BioAssay data set” (2004)", "key": {"[1]": {"experiment": "inhibitors of HIV Env-driven cell fusion, dose response, cherry-pick (AID 652057)", "type": "functional, cell-based"}, "[2]": {"experiment": "inhibitors of clade B AD8 Env fusion, dose response, cell-based, cherry-pick (AID 652062);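 further: potency is for inhibitors of fusion seen as a drop in luminescence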", "type": "functional"}, "[3]": {"experiment": "off-target signal loss in HeLa-CEM21 co-culture – HeLa F-luc CTL cells, cherry-picked, counter-screen for HIV-1 Env fusion inhibitor project, dose response (AID 652040);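 further: potency for signal decrease marking cytotoxic or nonspecific inhibition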", "type": "functional, cell-based"}, "[4]": {"experiment": "ZM109 Env clade C HIV-1 fusion inhibitors, dose response, HeLa effector, CEM target cells, luciferase, cherry-pick (AID 652058)", "type": "functional, cell-based"}, "Paired box protein Pax-8": {"molecular_target": "Paired box protein Pax-8 (Homo sapiens, UniProt Q06710)", "sequence (Q06710 whole entry)": "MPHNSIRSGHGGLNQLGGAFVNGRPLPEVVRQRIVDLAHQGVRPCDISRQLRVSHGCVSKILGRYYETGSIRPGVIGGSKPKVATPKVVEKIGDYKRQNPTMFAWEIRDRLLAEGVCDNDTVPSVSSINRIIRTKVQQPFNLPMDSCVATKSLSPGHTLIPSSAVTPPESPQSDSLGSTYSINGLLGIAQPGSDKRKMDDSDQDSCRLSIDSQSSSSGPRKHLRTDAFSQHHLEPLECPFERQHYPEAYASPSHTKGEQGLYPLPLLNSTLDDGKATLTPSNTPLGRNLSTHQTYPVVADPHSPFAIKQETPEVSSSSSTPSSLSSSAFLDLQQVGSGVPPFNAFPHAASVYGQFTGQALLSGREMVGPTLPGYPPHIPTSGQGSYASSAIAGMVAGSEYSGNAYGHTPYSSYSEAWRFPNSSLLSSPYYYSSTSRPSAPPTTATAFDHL", "experiment": "inhibitors of PAX8-driven TPO luciferase reporter, dose response, RMG-I cells, cherry-pick (AID 687027);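 further: luciferase reporter driven by Pax8 target thyroperoxidase promoter measured by SteadyGlo luminescence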", "type": "functional, cell-based"}, "[5]": {"molecular_target": "T1, Polyadenylate-binding protein 1 (Homo sapiens, UniProt P11940)", "T1 sequence (P11940 whole entry)": "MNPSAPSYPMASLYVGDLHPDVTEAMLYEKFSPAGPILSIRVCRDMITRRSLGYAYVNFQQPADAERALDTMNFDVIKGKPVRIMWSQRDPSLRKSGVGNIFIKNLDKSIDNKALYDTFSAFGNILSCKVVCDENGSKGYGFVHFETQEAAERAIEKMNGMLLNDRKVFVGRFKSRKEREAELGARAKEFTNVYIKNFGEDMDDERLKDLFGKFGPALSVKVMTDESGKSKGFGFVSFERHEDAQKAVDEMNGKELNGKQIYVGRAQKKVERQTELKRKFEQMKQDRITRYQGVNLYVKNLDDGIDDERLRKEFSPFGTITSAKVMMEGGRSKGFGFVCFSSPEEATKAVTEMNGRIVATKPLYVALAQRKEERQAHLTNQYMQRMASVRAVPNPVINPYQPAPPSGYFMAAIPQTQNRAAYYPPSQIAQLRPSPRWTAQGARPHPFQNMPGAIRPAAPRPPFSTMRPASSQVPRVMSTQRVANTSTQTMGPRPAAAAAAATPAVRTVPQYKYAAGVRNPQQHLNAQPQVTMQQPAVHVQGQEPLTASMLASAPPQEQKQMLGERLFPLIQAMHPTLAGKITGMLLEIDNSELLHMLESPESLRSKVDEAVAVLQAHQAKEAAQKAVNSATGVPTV", "experiment": "PABP1 MLLE–PAM2 interaction inhibitors, dose response, miRNA deadenylation inhibitor project, biochemical, fluorescence polarization, Cy5-PAM2 peptide, secondary (AID 602260)", "type": "functional", "details": "read-out: IC50_Mean"}, "[6]": {"molecular_target": "T1, Polyadenylate-binding protein 1", "experiment": "PABP1 MLLE–PAM2 binding inhibitor potency, dose response, biochemical, fluorescence polarization, FITC-PAM2 peptide (AID 602259)", "type": "functional", "details": "read-out: IC50_Mean"}, "Aminopeptidase N": {"molecular_target": "T2, Aminopeptidase N (Plasmodium falciparum FcB1/Columbia, UniProt O96935)", "T2 sequence (O96935 whole entry)": "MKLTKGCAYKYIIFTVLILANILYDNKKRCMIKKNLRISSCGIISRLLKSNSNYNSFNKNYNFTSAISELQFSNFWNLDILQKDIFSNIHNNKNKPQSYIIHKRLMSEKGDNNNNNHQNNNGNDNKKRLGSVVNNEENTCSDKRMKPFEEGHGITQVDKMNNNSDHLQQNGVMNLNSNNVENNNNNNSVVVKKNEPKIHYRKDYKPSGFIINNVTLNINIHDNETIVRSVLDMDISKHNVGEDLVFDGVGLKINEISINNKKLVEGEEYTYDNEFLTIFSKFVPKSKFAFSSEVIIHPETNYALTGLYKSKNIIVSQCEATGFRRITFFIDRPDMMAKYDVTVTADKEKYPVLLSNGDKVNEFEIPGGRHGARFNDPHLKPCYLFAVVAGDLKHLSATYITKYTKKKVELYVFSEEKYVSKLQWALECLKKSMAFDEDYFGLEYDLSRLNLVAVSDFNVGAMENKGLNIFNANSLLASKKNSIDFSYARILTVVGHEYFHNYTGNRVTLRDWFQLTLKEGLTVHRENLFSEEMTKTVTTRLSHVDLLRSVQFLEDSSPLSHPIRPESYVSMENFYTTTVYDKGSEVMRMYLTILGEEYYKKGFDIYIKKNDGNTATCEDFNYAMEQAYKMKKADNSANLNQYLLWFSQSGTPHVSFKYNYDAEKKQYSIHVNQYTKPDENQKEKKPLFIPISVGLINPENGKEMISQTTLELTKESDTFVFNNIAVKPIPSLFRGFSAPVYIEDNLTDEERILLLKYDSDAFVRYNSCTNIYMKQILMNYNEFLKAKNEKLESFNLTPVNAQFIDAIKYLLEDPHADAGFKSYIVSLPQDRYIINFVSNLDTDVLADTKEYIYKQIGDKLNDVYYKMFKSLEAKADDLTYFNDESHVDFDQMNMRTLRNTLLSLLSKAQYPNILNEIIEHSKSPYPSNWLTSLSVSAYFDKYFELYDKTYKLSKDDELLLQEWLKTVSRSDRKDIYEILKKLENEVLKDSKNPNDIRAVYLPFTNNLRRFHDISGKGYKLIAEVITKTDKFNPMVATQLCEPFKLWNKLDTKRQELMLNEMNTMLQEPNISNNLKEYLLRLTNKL", "experiment": "P. falciparum M1AAP inhibitors, biochemical, fluorogenic H-Leu-NHMec substrate, 1536-well (AID 1445)", "design": "species or system Plasmodium falciparum 3D7, 3D7"}, "HEK293": {"test_system": "HEK293", "experiment": "inhibitors of LMP1-driven NF-kB reporter, dose response, cell-based, HEK293, luciferase, cherry-pick (AID 588343)", "type": "functional", "details": "Homo sapiens"}, "Fatty acid synthase [7]": {"molecular_target": "T3, Fatty acid synthase (Homo sapiens, UniProt P49327)", "T3 sequence (P49327 whole entry, the tested form may be a part)": "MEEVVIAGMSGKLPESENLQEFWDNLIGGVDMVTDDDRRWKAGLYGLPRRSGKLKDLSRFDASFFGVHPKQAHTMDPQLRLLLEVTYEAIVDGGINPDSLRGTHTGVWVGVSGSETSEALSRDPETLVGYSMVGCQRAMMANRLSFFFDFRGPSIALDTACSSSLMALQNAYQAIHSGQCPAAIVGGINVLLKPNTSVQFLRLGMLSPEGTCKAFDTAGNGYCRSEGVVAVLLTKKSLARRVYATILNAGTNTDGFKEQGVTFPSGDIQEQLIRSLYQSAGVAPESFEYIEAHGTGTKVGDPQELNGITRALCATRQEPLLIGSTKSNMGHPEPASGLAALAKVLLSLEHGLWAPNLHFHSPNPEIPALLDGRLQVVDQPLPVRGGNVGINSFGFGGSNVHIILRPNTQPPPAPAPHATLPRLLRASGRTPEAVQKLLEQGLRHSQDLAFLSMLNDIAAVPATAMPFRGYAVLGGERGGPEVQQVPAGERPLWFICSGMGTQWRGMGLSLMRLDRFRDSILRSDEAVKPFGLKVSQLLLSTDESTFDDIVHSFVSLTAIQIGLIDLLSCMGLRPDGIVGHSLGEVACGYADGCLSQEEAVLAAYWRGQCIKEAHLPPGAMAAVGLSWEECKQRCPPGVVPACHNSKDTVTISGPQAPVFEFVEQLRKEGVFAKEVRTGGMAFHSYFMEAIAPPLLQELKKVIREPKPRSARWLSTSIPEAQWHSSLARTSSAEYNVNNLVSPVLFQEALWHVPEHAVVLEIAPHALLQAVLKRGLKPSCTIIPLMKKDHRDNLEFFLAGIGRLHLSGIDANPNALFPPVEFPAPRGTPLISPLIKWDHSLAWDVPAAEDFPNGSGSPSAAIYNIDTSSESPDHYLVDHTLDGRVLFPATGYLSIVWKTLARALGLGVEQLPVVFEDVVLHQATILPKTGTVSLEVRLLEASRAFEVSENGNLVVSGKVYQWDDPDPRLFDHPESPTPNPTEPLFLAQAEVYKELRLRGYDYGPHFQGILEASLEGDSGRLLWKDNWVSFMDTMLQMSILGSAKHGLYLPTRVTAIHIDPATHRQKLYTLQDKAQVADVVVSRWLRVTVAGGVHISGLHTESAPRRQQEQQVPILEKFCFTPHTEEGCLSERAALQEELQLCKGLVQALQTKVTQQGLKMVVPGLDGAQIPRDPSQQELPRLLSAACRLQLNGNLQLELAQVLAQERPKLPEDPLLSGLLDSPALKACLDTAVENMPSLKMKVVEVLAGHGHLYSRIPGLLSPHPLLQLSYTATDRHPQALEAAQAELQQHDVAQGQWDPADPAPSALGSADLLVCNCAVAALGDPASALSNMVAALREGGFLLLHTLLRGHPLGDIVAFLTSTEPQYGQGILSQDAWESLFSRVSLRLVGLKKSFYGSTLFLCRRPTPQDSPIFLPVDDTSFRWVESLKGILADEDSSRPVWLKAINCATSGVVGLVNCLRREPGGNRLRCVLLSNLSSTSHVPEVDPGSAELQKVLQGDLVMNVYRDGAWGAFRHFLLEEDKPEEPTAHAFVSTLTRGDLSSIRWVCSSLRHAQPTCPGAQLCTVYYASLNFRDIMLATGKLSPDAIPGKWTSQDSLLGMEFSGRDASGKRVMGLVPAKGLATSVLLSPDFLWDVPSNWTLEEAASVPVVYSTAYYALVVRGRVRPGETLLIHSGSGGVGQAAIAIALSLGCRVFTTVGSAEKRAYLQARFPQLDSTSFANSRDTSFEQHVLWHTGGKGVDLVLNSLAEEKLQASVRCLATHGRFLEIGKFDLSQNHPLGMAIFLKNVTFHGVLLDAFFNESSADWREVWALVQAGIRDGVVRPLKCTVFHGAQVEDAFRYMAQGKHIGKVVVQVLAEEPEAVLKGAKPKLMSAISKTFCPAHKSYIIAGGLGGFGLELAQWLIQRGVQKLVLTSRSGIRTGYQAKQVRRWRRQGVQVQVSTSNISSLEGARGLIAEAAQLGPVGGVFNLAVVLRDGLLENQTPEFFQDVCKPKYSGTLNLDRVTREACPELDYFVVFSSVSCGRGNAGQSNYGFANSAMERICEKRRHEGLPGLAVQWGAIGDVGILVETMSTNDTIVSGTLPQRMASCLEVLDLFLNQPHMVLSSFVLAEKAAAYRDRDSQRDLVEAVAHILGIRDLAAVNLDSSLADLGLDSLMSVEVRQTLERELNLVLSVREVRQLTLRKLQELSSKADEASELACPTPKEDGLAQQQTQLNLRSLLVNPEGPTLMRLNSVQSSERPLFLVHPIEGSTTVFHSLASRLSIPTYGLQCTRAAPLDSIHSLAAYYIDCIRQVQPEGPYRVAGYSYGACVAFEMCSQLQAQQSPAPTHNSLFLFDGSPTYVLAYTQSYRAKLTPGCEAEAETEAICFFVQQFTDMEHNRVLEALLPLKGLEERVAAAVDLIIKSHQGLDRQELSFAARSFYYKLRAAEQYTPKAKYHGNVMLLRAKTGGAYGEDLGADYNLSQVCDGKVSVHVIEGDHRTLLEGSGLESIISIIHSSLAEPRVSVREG", "experiment": "FAS thioesterase domain inhibitors, dose response, biochemical, kinetic fluorescence intensity (AID 624326);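 further: rate of fluorescence rise from hydrolysis of a fluorogenic O-methyl fluorescein ester substrate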", "type": "functional"}, "Fatty acid synthase [8]": {"molecular_target": "T3, Fatty acid synthase", "experiment": "FAS thioesterase domain inhibitors, dose response, biochemical, endpoint fluorescence intensity, uHTS hits (AID 624327);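 further: fluorescence from hydrolysis of an O-methyl fluorescein acyl ester substrate by the enzyme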", "type": "functional"}, "Beta-galactosidase": {"molecular_target": "Beta-galactosidase (Escherichia coli, UniProt Q8VNN2)", "sequence (Q8VNN2 whole entry)": "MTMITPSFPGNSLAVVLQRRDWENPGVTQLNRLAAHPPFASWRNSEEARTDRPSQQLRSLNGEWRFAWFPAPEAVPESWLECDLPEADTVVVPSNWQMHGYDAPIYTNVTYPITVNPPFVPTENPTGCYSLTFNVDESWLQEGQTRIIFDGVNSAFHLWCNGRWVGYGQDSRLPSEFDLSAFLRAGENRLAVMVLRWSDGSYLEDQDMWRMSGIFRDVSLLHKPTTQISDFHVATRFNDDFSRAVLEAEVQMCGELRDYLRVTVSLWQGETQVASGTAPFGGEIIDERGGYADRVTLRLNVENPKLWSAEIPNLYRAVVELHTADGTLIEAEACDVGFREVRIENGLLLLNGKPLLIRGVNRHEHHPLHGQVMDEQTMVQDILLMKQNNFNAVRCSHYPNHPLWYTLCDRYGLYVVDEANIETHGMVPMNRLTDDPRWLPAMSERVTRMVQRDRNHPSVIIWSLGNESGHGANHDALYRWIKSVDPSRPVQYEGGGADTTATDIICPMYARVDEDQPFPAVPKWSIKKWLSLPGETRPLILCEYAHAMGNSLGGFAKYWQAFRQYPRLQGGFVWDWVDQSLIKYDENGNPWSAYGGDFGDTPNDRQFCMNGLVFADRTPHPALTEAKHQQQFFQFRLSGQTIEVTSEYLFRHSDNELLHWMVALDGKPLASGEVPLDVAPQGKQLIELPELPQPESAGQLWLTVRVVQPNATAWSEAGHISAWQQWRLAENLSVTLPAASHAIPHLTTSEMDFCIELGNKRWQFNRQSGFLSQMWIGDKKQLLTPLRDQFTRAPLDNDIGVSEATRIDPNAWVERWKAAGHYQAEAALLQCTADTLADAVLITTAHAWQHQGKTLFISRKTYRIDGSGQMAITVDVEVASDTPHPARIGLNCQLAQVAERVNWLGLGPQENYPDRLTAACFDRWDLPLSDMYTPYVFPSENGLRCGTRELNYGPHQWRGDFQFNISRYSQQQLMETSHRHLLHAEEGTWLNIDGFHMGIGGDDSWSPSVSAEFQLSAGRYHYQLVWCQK", "experiment": "PubChem AID 485352", "type": "functional"}, "[9]": {"molecular_target": "T4, Replicative DNA helicase DnaB (Mycobacterium tuberculosis, UniProt P9WMR3)", "T4 sequence (P9WMR3 whole entry)": "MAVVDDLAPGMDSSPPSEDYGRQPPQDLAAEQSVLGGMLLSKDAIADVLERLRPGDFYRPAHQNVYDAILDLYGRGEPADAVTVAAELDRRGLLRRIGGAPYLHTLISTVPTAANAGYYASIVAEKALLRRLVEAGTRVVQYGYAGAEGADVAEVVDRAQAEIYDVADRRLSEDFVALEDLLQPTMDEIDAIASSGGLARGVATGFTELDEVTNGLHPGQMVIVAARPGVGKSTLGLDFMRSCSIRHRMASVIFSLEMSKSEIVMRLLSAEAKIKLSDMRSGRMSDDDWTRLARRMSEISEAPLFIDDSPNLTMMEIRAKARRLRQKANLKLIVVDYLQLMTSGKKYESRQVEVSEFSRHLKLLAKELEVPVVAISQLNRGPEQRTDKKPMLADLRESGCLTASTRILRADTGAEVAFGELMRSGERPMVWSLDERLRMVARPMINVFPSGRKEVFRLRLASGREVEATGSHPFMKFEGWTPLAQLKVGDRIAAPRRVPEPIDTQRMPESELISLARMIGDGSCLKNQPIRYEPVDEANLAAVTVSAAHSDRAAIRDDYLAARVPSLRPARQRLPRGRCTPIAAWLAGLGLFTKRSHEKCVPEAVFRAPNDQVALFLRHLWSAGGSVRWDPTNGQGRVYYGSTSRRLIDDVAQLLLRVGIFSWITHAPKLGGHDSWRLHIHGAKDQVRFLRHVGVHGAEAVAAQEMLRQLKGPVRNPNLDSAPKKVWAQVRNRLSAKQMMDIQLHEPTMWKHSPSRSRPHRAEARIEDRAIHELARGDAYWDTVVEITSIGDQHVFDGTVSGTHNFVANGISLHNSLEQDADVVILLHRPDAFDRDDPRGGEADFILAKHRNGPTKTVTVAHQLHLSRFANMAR", "experiment": "DnaB intein splicing inhibitors, dose response, biochemical, cell-free fluorescence (AID 449749)", "type": "functional"}, "[10]": {"molecular_target": "T5, Type-1 angiotensin II receptor (Homo sapiens, UniProt P30556)", "T5 sequence (P30556 whole entry)": "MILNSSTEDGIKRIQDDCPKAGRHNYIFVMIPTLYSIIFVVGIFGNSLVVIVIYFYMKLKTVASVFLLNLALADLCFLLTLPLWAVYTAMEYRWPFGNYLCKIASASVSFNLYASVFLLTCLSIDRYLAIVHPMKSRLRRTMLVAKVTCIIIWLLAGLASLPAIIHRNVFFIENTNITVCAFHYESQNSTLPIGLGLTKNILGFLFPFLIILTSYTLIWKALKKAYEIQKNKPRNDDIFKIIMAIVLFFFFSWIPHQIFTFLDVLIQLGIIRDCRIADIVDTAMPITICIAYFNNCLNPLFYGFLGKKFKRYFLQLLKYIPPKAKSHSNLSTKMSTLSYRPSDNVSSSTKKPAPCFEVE", "experiment": "AT1 receptor antagonists, dose response, selectivity assay for APJ receptor antagonist project, cell-based, uHTS hits (AID 463214);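 further: antagonist potency against angiotensin II stimulated AT1 response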", "type": "functional"}, "Protein RecA": {"molecular_target": "T6, Protein RecA (Mycobacterium tuberculosis, UniProt P9WHJ3)", "T6 sequence (P9WHJ3 whole entry)": "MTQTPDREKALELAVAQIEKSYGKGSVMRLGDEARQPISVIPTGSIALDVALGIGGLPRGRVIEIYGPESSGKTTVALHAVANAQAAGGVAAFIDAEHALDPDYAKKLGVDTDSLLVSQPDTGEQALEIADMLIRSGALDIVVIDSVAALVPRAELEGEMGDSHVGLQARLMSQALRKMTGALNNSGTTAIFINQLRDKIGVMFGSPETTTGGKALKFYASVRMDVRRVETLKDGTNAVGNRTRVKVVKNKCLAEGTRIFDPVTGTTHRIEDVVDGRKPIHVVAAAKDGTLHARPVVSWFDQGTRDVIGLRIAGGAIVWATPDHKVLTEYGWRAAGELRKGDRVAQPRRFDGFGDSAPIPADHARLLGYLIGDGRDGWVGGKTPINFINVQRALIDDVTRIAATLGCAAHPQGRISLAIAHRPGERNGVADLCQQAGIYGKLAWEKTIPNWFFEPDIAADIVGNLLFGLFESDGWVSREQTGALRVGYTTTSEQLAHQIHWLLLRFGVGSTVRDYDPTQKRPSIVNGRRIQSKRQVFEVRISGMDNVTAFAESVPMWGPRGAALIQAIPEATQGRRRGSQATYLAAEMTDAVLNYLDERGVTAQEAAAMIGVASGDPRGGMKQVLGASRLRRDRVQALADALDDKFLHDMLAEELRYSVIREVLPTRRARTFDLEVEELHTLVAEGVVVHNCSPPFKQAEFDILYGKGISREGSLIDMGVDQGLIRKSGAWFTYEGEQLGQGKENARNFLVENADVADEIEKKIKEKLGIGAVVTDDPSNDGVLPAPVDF", "experiment": "Fluorescence Cell-Free Homogeneous Dose Retest to Identify Inhibitors of RecA-Intein Splicing Activity. [Related pubchem assays (depositor defined):AID2097, AID2223, AID489010, AID492950]", "type": "functional"}}, "note": "Active and inactive are the calls of the source."}
{"smiles": "CCn1c(COc2ccc(Cl)cc2)nnc1SCc1nc2ccccc2[nH]1", "values": [{"measurement": "AC50", "setting": "[1]", "value": "6.83 µM (active)"}, {"measurement": "AC50", "setting": "[2]", "value": "5.17 µM (active)"}, {"measurement": "AC50", "setting": "[3]", "value": "23.5 µM (active)"}, {"measurement": "AC50", "setting": "[4]", "value": "12 µM (active)"}]}
{"smiles": "COc1ccc(NS(=O)(=O)c2ccc(N3CCCC3)c(NC(S)=Nc3ccc(SC(F)F)cc3)c2)cc1", "values": [{"measurement": "AC50", "setting": "Paired box protein Pax-8", "value": "16.4 µM (active)"}, {"measurement": "IC50", "setting": "[5]", "value": "> 66 µM (inactive)"}, {"measurement": "IC50", "setting": "[6]", "value": "> 66 µM (inactive)"}]}
{"smiles": "O=C(CN1CCC(NC(=O)c2ccccc2F)CC1)Nc1ccc2c(c1)OCO2", "values": [{"measurement": "IC50", "setting": "Aminopeptidase N", "value": "34 µM (active)"}]}
{"smiles": "CC1CCN(c2ccc(-c3ccc(NC(=O)C(F)(F)F)cc3)nn2)CC1", "values": [{"measurement": "AC50", "setting": "HEK293", "value": "2.7 µM (active)"}]}
{"smiles": "O=C(c1ccc2c(c1)OCO2)N(CC1CCCO1)C1(C(=O)NC2CCCCC2)CCCCC1", "note": "(centres undefined)", "values": [{"measurement": "AC50", "setting": "[1]", "value": "5.73 µM (active)"}, {"measurement": "AC50", "setting": "[2]", "value": "13 µM (active)"}, {"measurement": "AC50", "setting": "[3]", "value": "9.67 µM (active)"}, {"measurement": "AC50", "setting": "[4]", "value": "4.79 µM (active)"}]}
{"smiles": "CCN(C[C@H]1N[C@@](C)(C(=O)OC)[C@H]2C(=O)N(Cc3ccccc3)C(=O)[C@@H]12)S(=O)(=O)c1ccc(C(C)(C)C)cc1", "values": [{"measurement": "AC50", "setting": "[1]", "value": "5.72 µM (active)"}, {"measurement": "AC50", "setting": "[2]", "value": "6.14 µM (active)"}, {"measurement": "AC50", "setting": "[3]", "value": "6.31 µM (active)"}, {"measurement": "AC50", "setting": "[4]", "value": "5.16 µM (active)"}]}
{"smiles": "CCc1nc2ccc(C(=O)N3CCN(C(=O)c4ccco4)CC3)cn2c1N(C)Cc1ccc(OC)cc1", "values": [{"measurement": "AC50", "setting": "[1]", "value": "2.72 µM (active)"}, {"measurement": "AC50", "setting": "[2]", "value": "13.5 µM (active)"}, {"measurement": "AC50", "setting": "[3]", "value": "10.4 µM (active)"}, {"measurement": "AC50", "setting": "[4]", "value": "7.5 µM (active)"}]}
{"smiles": "Cc1csc(N=Nc2ccc(N(C)C)cc2)[n+]1[O-]", "values": [{"measurement": "AC50", "setting": "HEK293", "value": "2.84 µM (active)"}]}
{"smiles": "O=C(CN1CC(c2ccccc2)CC1=O)N/N=C/c1cc(Br)ccc1O", "note": "(centres undefined)", "values": [{"measurement": "IC50", "setting": "Fatty acid synthase [7]", "value": "4.11 µM (active)"}, {"measurement": "IC50", "setting": "Aminopeptidase N", "value": "11.8 µM (active)"}, {"measurement": "IC50", "setting": "Fatty acid synthase [8]", "value": "3.61 µM (active)"}]}
{"smiles": "Cc1cccc(NC(=S)N/N=C2/CCCCc3ccccc32)c1", "values": [{"measurement": "EC50", "setting": "Beta-galactosidase", "value": "> 40 µM (inactive)"}, {"measurement": "AC50", "setting": "[9]", "value": "34 µM (active)"}, {"measurement": "IC50", "setting": "[10]", "value": "> 40 µM (not active)"}, {"measurement": "EC50", "setting": "Protein RecA", "value": "> 380 µM (inactive)"}]}
